According to patent publication US12234211B2, “Cycloolefin substituted heteroaromatic compounds and their use” (HUTCHISON MEDIPHARMA LIMITED, priority 2017, dated 2025):

molecular target: T1, IDH2-R140Q (Homo sapiens, UniProt P48735, R140Q); experiment: Fluorescent determination of IDH2-R140Q cell activity (2-HG in U87MGR140Q cells); type: cell-based; conditions: 72 hours incubation, read-out: IC50 (2-HG inhibition)
T1 construct: expressed in transfected cells
T1 sequence (P48735 40-452 R140Q): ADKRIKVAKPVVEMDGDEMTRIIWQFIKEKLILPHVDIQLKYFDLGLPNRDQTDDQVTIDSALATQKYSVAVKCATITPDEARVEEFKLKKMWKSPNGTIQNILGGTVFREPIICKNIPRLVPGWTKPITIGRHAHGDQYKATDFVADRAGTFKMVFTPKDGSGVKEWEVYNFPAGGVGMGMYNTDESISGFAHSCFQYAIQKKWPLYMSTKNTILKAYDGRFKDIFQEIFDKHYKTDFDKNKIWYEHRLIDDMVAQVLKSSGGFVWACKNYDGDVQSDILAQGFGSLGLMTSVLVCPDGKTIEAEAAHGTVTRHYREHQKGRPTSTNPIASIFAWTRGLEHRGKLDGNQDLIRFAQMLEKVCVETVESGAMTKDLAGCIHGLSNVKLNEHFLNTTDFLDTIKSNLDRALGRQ
Description: Enzyme reaction solution: 1 mM nicotinamide adenine dinucleotide (NAD), 0.6 ng/μL D-2-hydroxyglutarate dehydrogenase (D2HGDH), 0.8 U/mL lipoamidase dehydrogenase (Diaphorase) and 60 μM Resazurin in 40 mM Tris.HCl pH 8.8 assay buffer.
Standard curve stock solution: The standard of 2-HG sodium salt was serially diluted in serum-free MEM medium to make a standard curve stock solution.
100 μL of U87MGR140Q cells were seeded at a density of 6×10^4/mL per well in a 96-well plate a.
From each well of 96-well plate a, 50 μL of the culture supernatant was transferred to the corresponding well of 96-well plate b; at the same time, 50 μL of standard curve stocking solution was added to other wells of 96-well plate b. Then 10 μl of 360 mM hydrochloric acid was added to all the wells. After shaking and mixing, the plate was placed on ice for 10 minutes, and then 10 μl of 420 mM Tris-base was added. After shaking and mixing, the plate was placed on ice for additional 5 minutes. Then the plate was centrifuged at 2500 rpm for 10 minutes.
After centrifuging, from each well of 96-well plate b, 20 μL of the supernatant was transferred to 96-well plate c. An additional 80 μL of the enzyme reaction solution was added to each well and incubated at 25° C. for 90 minutes.
A standard curve of the fluorescence value vs. the corresponding 2-HG concentration was made, and the 2-HG concentration corresponding to each concentration point of the compound was calculated, then the inhibition ratio was calculated, and the data was analyzed using XLfit5 (ID Business Solutions Limited) software to obtain the IC50 value.
The inhibition ratio was calculated as follows: Inhibition Ratio (IH %)=(1-2-HG concentration of test compound treated cells/2-HG concentration of control cells)×100%.

Row | SMILES | IC50
1 | C1=C(c2nc(NCC3CC3)nc(NCC3CC3)n2)CCCC1 [Compound 187] | 742 nM
2 | C[C@@H](Nc1nc(NC2CC2)nc(C2=CC(O)CCC2)n1)C(F)(F)F (mixture of isomers) [Compound 129] | 171 nM
3 | OC1CCCC(c2nc(Nc3ccc(F)cc3)nc(Nc3ccnc(C(F)(F)F)c3)n2)=C1F (centres unmarked) [Compound 72] | 42 nM
4 | CC(C)Nc1nc(Nc2ccn3nccc3c2)nc(C2=C(F)C(O)CCC2)n1 (centres unmarked) [Compound 59] | 221 nM
5 | C[C@@H](Nc1nc(N[C@H]2CCOC2)nc(C2=CC(O)CCC2)n1)C(F)(F)F (some centres unmarked) [Compound 180] | 531 nM
6 | C[C@@H](Nc1nc(NC2COC2)nc(C2=CC(O)CCC2)n1)C(F)(F)F (some centres unmarked) [Compound 178] | 934 nM
7 | OC1CCCC(c2nc(NC3CC3)nc(NC3CC(F)(F)C3)n2)=C1F (centres unmarked) [Compound 27] | 148 nM
8 | C[C@@H](Nc1nc(NC2(C)CC2)nc(C2=CC(O)CCC2)n1)C(F)(F)F (mixture of isomers) [Compound 156] | 657 nM
9 | OC1CCCC(c2nc(NC3CC3)nc(NC3CC(F)(F)C3)n2)=C1F (centres unmarked) [Compound 49] | 210 nM
10 | CC1CC1Nc1nc(NC2CC(F)(F)C2)nc(C2=C(F)C(O)CCC2)n1 (centres unmarked) [Compound 50] | 72 nM
11 | C[C@@H](Nc1nc(N[C@H]2CCOC2)nc(C2=CC(F)(F)CCC2)n1)C(F)(F)F [Compound 139] | 2510 nM
12 | [2H]C([2H])([2H])Nc1nc(Nc2ccnc(C(F)(F)F)c2)nc(C2=C(F)C(O)CCC2)n1 (centres unmarked) [Compound 58] | 169 nM
13 | [2H]C([2H])([2H])C([2H])(Nc1nc(NC2CC(F)(F)C2)nc(C2=C(F)C(O)CCC2)n1)C([2H])([2H])[2H] (centres unmarked) [Compound 55] | 103 nM
14 | C[C@@H](Nc1nc(NC2CCC(F)(F)C2)nc(C2=CC(O)CCC2)n1)C(F)(F)F (mixture of isomers) [Compound 176] | 612 nM
15 | C[C@@H](Nc1nc(N[C@H](C)C(F)(F)F)nc(C2=CCCCC2)n1)C(F)(F)F [Compound 186, 6-(Cyclohex-1-en-1-yl)-N^2,N^4-bis((R)-1,1,1-trifluoropropan-2-yl)-1,3,5-triazine-2,4-diamine] | 677 nM
16 | C[C@@H](Nc1nc(N[C@H](C)C2CC2)nc(C2=CCCCC2)n1)C1CC1 [Compound 191] | 999 nM
17 | [2H]C1([2H])CCC(c2nc(NC(C)C)nc(NC3CC(F)(F)C3)n2)=C(F)C1O (centres unmarked) [Compound 56] | 93 nM
18 | [2H]C1([2H])CCC(c2nc(Nc3ccnc(C(F)(F)F)c3)nc(NC([2H])(C([2H])([2H])[2H])C([2H])([2H])[2H])n2)=C(F)C1O (centres unmarked) [Compound 86] | 21 nM
19 | CC(C)(O)CNc1nc(Nc2ccnc(C(F)(F)F)c2)nc(C2=C(F)C(O)CCC2)n1 (centres unmarked) [Compound 70] | 112 nM
20 | C[C@@H](Nc1nc(NCC(C)(C)O)nc(C2=CCCCC2)n1)C(F)(F)F [Compound 188] | 5020 nM

Now from value to molecule:

Row | IC50 | SMILES
21 | 665 nM | CC(C)Nc1nc(NC(C)C)nc(C2=C(F)C(O)CCC2)n1 (centres unmarked) [Compound 25]
22 | 180 nM | C[C@@H](Nc1nc(NC2CC3(C2)CC(F)(F)C3)nc(C2=C(F)C(O)CCC2)n1)C(F)(F)F (mixture of isomers) [Compound 160]
23 | 113 nM | C[C@@H](Nc1nc(NC2CCCC2)nc(C2=C(F)C(O)CCC2)n1)C(F)(F)F (mixture of isomers) [Compound 10]
24 | 131 nM | [2H]C([2H])([2H])C([2H])(Nc1nc(N[C@@H](C)C(F)(F)F)nc(C2=C(F)C(O)CCC2)n1)C([2H])([2H])[2H] (some centres unmarked) [Compound 53]
25 | 173 nM | C[C@H](Nc1nc(N[C@@H](C)C(F)(F)F)nc(C2=C(F)C(O)CCC2)n1)C(F)(F)F (some centres unmarked) [Compound 69]
26 | 504 nM | CC(C)Nc1nc(N[C@H](C)C(F)(F)F)nc(C2=CC(F)(F)CCC2)n1 [Compound 138, (R)-6-(3,3-difluorocyclohex-1-en-1-yl)-N^2-isopropyl-N^4-(1,1,1-trifluoropropan-2-yl)-1,3,5-triazine-2,4-diamine]
27 | 123 nM | CC(C)Nc1nc(NC2CC(F)(F)C2)nc(C2=C(F)C(O)CCC2)n1 (centres unmarked) [Compound 28]
28 | 177 nM | [2H]C1(O)CCCC(c2nc(N[C@H](C)C(F)(F)F)nc(NC([2H])(C([2H])([2H])[2H])C([2H])([2H])[2H])n2)=C1F (mixture of isomers) [Compound 29]
29 | 3780 nM | CC(CO)Nc1nc(N[C@H](C)C(F)(F)F)nc(C2=CC(O)CCC2)n1 (mixture of isomers) [Compound 184]
30 | 192 nM | [2H]C1(O)CCCC(c2nc(NC(C)C)nc(N[C@H](C)C(F)(F)F)n2)=C1F (mixture of isomers) [Compound 23]
31 | 1910 nM | CC(C)Nc1nc(N[C@H](C)C(F)(F)F)nc(C2=CCCC(F)C2)n1 (mixture of isomers) [Compound 37]
32 | 1620 nM | CC(C)Nc1nc(N[C@H](C)C(F)(F)F)nc(C2=CCC(F)CC2)n1 (mixture of isomers) [Compound 38]
33 | 1540 nM | CC(C)C(=O)Nc1nc(N[C@H](C)C(F)(F)F)nc(C2=CC(O)CCC2)n1 (mixture of isomers) [Compound 137]
34 | 174 nM | CCCNc1nc(N[C@H](C)C(F)(F)F)nc(C2=CC(O)CCC2)n1 (mixture of isomers) [Compound 133]
35 | 344 nM | C[C@@H](Nc1nc(NOC(C)(C)C)nc(C2=C(F)C(O)CCC2)n1)C(F)(F)F (mixture of isomers) [Compound 172]
36 | 413 nM | CC(C)Nc1nc(N[C@H](C)C(F)(F)F)nc(C2=CCCCC2)n1 [Compound 190, (R)-6-(cyclohex-1-en-1-yl)-N^2-isopropyl-N^4-(1,1,1-trifluoropropan-2-yl)-1,3,5-triazine-2,4-diamine]
37 | 65 nM | [2H]C1([2H])CCC(c2nc(NC3CC(F)(F)C3)nc(N[C@@H](C)C(F)(F)F)n2)=C(F)C1([2H])O (mixture of isomers) [Compound 90]
38 | 326 nM | C[C@@H](Nc1nc(N[C@@H]2C[C@@H]2F)nc(C2=C(F)C(O)CCC2)n1)C(F)(F)F (mixture of isomers) [Compound 16]
39 | 102 nM | C[C@@H](Nc1nc(NCC(F)(F)F)nc(C2=C(F)C(O)C(F)(F)CC2)n1)C(F)(F)F (mixture of isomers) [Compound 208]
40 | 199 nM | CC(C)CNc1nc(N[C@H](C)C(F)(F)F)nc(C2=C(F)C(O)CCC2)n1 (mixture of isomers) [Compound 12]
41 | 93 nM | CCCNc1nc(N[C@H](C)C(F)(F)F)nc(C2=C(F)C(O)C(F)(F)CC2)n1 (mixture of isomers) [Compound 248]
42 | 1410 nM | CC(C)Nc1nc(N[C@H](C)C(F)(F)F)nc(C2=CCCC2)n1 [Compound 189]
43 | 2180 nM | CC(C)Nc1nc(Nc2cnn(C)c2)nc(C2=C(F)C(O)CCC2)n1 (centres unmarked) [Compound 57]
44 | 177 nM | C[C@@H](Nc1nc(NC2CC2)nc(C2=C(F)C(O)CCC2)n1)C(F)(F)F (mixture of isomers) [Compound 162]
45 | 507 nM | COC[C@H](C)Nc1nc(N[C@H](C)C(F)(F)F)nc(C2=CC(O)CCC2)n1 (some centres unmarked) [Compound 183]
46 | 2750 nM | CC(C)Nc1nc(N[C@H](C)C(F)(F)F)nc(C2=CCCC(O)C2)n1 (mixture of isomers) [Compound 144, 3-(4-(Isopropylamino)-6-(((R)-1,1,1-trifluoropropan-2-yl)amino)-1,3,5-triazin-2-yl)cyclohex-3-en-1-ol]
47 | 228 nM | [2H]C1(O)CCCC(c2nc(N[C@@H](C)C(F)(F)F)nc(NC([2H])(C([2H])([2H])[2H])C([2H])([2H])[2H])n2)=C1F (mixture of isomers) [Compound 30]
